According to patent US10457703B2, “Bile acid derivatives as FXR/TGR5 agonists and methods of use thereof” (ENANTA PHARMACEUTICALS, INC., priority 2015, dated 2019):

Biological target: human FXR (NR1H4) (Homo sapiens (Human), UniProt Q96RI1)
Assay: Human FXR (NR1H4) Assay (Gal4 promoter driven luciferase reporter, Indigo Bioscience kit);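 for Efficacy (%): 100% equals the efficacy of CDCA; efficacy normalized to CDCA set as 100%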
Assay type: cell-based
Details: for EC50: Human FXR (NR1H4) Assay, potency ranges; for Emax: read-out: Efficacy (%)
In short: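 CHO reporter cells expressing human FXR with an FXR-responsive luciferase reporter, treated with compound doses at 0.2% DMSO. Incubation lasted 22 h at 37 °C before luciferase detection reagent was added. Luminescence was then read.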

human FXR (NR1H4), sequence (Q96RI1 whole entry, the tested form may be a part): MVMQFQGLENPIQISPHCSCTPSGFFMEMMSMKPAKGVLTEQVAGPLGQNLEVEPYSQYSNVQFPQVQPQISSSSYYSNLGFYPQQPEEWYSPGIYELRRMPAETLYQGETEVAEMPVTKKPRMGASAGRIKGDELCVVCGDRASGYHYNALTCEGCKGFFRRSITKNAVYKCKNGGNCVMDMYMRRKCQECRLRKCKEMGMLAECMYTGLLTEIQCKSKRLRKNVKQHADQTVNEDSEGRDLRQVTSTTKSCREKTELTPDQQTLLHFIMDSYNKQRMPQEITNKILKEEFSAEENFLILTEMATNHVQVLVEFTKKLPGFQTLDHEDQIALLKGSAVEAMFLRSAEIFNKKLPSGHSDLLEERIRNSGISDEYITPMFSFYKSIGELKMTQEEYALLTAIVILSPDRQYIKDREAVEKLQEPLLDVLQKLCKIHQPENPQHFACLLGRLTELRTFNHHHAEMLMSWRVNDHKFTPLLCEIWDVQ

Row | SMILES | EC50 | Emax
1 | CC[C@H]1[C@@H](O)[C@@H]2[C@H](CC[C@]3(C)[C@@H]([C@H](C)CCOC(=O)NS(=O)(=O)c4ccc5c(c4)OCCO5)CC[C@@H]23)[C@@]2(C)CC[C@@H](O)C[C@@H]12 [Example 90] | < 0.1 µM | 225%
2 | CC[C@H]1[C@@H](O)[C@@H]2[C@H](CC[C@]3(C)[C@@H]([C@H](C)CCOC(=O)NS(=O)(=O)CCc4cccc(Cl)c4)CC[C@@H]23)[C@@]2(C)CC[C@@H](O)C[C@@H]12 [Example 91] | 0.1 to 1 µM | 313%
3 | CC[C@H]1[C@@H](O)[C@@H]2[C@H](CC[C@]3(C)[C@@H]([C@H](C)CCOC(=O)NS(=O)(=O)CCC(=O)OC)CC[C@@H]23)[C@@]2(C)CC[C@@H](O)C[C@@H]12 [Example 92] | 1 to 10 µM | 218%
4 | CC[C@H]1[C@@H](O)[C@@H]2[C@H](CC[C@]3(C)[C@@H]([C@H](C)CCOC(=O)NS(=O)(=O)c4ccc5c(c4)OCO5)CC[C@@H]23)[C@@]2(C)CC[C@@H](O)C[C@@H]12 [Example 93] | < 0.1 µM | 288%
5 | CC[C@H]1[C@@H](O)[C@@H]2[C@H](CC[C@]3(C)[C@@H]([C@H](C)CCOC(=O)NS(=O)(=O)c4ccc(OC)c(F)c4)CC[C@@H]23)[C@@]2(C)CC[C@@H](O)C[C@@H]12 [Example 94] | < 0.1 µM | 268%
6 | CC[C@H]1[C@@H](O)[C@@H]2[C@H](CC[C@]3(C)[C@@H]([C@H](C)CCOC(=O)NS(=O)(=O)c4cccnc4)CC[C@@H]23)[C@@]2(C)CC[C@@H](O)C[C@@H]12 [Example 95] | 1 to 10 µM | 420%
7 | CCC(CC)S(=O)(=O)NC(=O)OCC[C@@H](C)[C@H]1CC[C@H]2[C@@H]3[C@H](O)[C@H](CC)[C@@H]4C[C@H](O)CC[C@]4(C)[C@H]3CC[C@]12C [Example 96] | < 0.1 µM | 388%
8 | CC[C@H]1[C@@H](O)[C@@H]2[C@H](CC[C@]3(C)[C@@H]([C@H](C)CCOC(=O)NS(C)(=O)=O)CC[C@@H]23)[C@@]2(C)CC[C@@H](O)C[C@@H]12 [Example 97] | 0.1 to 1 µM | 245%
9 | CC[C@H]1[C@@H](O)[C@@H]2[C@H](CC[C@]3(C)[C@@H]([C@H](C)CCOC(=O)NS(=O)(=O)CC)CC[C@@H]23)[C@@]2(C)CC[C@@H](O)C[C@@H]12 [Example 98] | 0.1 to 1 µM | 279%
10 | CC[C@H]1[C@@H](O)[C@@H]2[C@H](CC[C@]3(C)[C@@H]([C@H](C)CCOC(=O)NS(=O)(=O)c4cnccn4)CC[C@@H]23)[C@@]2(C)CC[C@@H](O)C[C@@H]12 [Example 99] | 1 to 10 µM | 51%
11 | CC[C@H]1[C@@H](O)[C@@H]2[C@H](CC[C@]3(C)[C@@H]([C@H](C)CCOC(=O)NS(=O)(=O)c4ccc(OC(C)C)cc4)CC[C@@H]23)[C@@]2(C)CC[C@@H](O)C[C@@H]12 [Example 100] | < 0.1 µM | 316%
12 | CC[C@H]1[C@@H](O)[C@@H]2[C@H](CC[C@]3(C)[C@@H]([C@H](C)CCOC(=O)NS(=O)(=O)c4ccc(OCC(F)(F)F)cc4)CC[C@@H]23)[C@@]2(C)CC[C@@H](O)C[C@@H]12 [Example 101] | 0.1 to 1 µM | 289%
13 | CC[C@H]1[C@@H](O)[C@@H]2[C@H](CC[C@]3(C)[C@@H]([C@H](C)CCOC(=O)NS(=O)(=O)c4ccc(F)c(F)c4)CC[C@@H]23)[C@@]2(C)CC[C@@H](O)C[C@@H]12 [Example 102] | < 0.1 µM | 235%
14 | CC[C@H]1[C@@H](O)[C@@H]2[C@H](CC[C@]3(C)[C@@H]([C@H](C)CCOC(=O)NS(=O)(=O)CC(C)(C)C)CC[C@@H]23)[C@@]2(C)CC[C@@H](O)C[C@@H]12 [Example 103] | < 0.1 µM | 294%
15 | CC[C@H]1[C@@H](O)[C@@H]2[C@H](CC[C@]3(C)[C@@H]([C@H](C)CCOC(=O)NS(=O)(=O)C4CCCCC4)CC[C@@H]23)[C@@]2(C)CC[C@@H](O)C[C@@H]12 [Example 104-a] | < 0.1 µM | 242%
16 | CC[C@H]1[C@@H](O)[C@@H]2[C@H](CC[C@]3(C)[C@@H]([C@H](C)CCOC(=O)NS(=O)(=O)c4ccc(C)cc4)CC[C@@H]23)[C@@]2(C)CC[C@@H](O)C[C@@H]12 [Example 104-b] | < 0.1 µM | 363%
17 | CC[C@H]1[C@@H](O)[C@@H]2[C@H](CC[C@]3(C)[C@@H]([C@H](C)CCOC(=O)NS(=O)(=O)c4nccs4)CC[C@@H]23)[C@@]2(C)CC[C@@H](O)C[C@@H]12 [Example 104-c] | 1 to 10 µM | 34%
18 | CC[C@H]1[C@@H](O)[C@@H]2[C@H](CC[C@]3(C)[C@@H]([C@H](C)CCOC(=O)NS(=O)(=O)c4ncccn4)CC[C@@H]23)[C@@]2(C)CC[C@@H](O)C[C@@H]12 [Example 104-d] | 1 to 10 µM | 35%

Row | SMILES | EC50 | Emax
19 | CC[C@H]1[C@@H](O)[C@@H]2[C@H](CC[C@]3(C)[C@@H]([C@H](C)CCOC(=O)N4CCCCS4(=O)=O)CC[C@@H]23)[C@@]2(C)CC[C@@H](O)C[C@@H]12 [Example 104-e] | 0.1 to 1 µM | 239%
20 | CC[C@H]1[C@@H](O)[C@@H]2[C@H](CC[C@]3(C)[C@@H]([C@H](C)CCOC(=O)NS(=O)(=O)c4ccc5ccsc5c4)CC[C@@H]23)[C@@]2(C)CC[C@@H](O)C[C@@H]12 [Example 104-f] | < 0.1 µM | 213%
21 | CC[C@H]1[C@@H](O)[C@@H]2[C@H](CC[C@]3(C)[C@@H]([C@H](C)CCOC(=O)NS(=O)(=O)N4CC(C)(C)C4)CC[C@@H]23)[C@@]2(C)CC[C@@H](O)C[C@@H]12 [Example 104-g] | < 0.1 µM | 289%
22 | CC[C@H]1[C@@H](O)[C@@H]2[C@H](CC[C@]3(C)[C@@H]([C@H](C)CCOC(=O)NS(=O)(=O)c4cc(C(F)(F)F)cc(C(F)(F)F)c4)CC[C@@H]23)[C@@]2(C)CC[C@@H](O)C[C@@H]12 [Example 104-h] | 1 to 10 µM | 208%
23 | CC[C@H]1[C@@H](O)[C@@H]2[C@H](CC[C@]3(C)[C@@H]([C@H](C)CCOC(=O)NS(=O)(=O)C4CCC4)CC[C@@H]23)[C@@]2(C)CC[C@@H](O)C[C@@H]12 [Example 104-i] | < 0.1 µM | 314%
24 | CC[C@H]1[C@@H](O)[C@@H]2[C@H](CC[C@]3(C)[C@@H]([C@H](C)CCOC(=O)NS(=O)(=O)N4CC(F)(F)C4)CC[C@@H]23)[C@@]2(C)CC[C@@H](O)C[C@@H]12 [Example 104-j] | < 0.1 µM | 327%
25 | CC[C@H]1[C@@H](O)[C@@H]2[C@H](CC[C@]3(C)[C@@H]([C@H](C)CCOC(=O)NS(=O)(=O)c4ccc(OC(F)(F)F)c(F)c4)CC[C@@H]23)[C@@]2(C)CC[C@@H](O)C[C@@H]12 [Example 104-k] | 0.1 to 1 µM | 180%
26 | CC[C@H]1[C@@H](O)[C@@H]2[C@H](CC[C@]3(C)[C@@H]([C@H](C)CCOC(=O)NS(=O)(=O)C(F)(F)F)CC[C@@H]23)[C@@]2(C)CC[C@@H](O)C[C@@H]12 [Example 108] | 1 to 10 µM | 309%
27 | CC[C@H]1[C@@H](O)[C@@H]2[C@H](CC[C@]3(C)[C@@H]([C@H](C)CCOC(=O)N4CC(=O)N(Cc5ccccc5)S4(=O)=O)CC[C@@H]23)[C@@]2(C)CC[C@@H](O)C[C@@H]12 [Example 109] | 1 to 10 µM | 142%
28 | CC[C@H]1[C@@H](O)[C@@H]2[C@H](CC[C@]3(C)[C@@H]([C@H](C)CCOC(=O)N4CC(=O)NS4(=O)=O)CC[C@@H]23)[C@@]2(C)CC[C@@H](O)C[C@@H]12 [Example 110] | 1 to 10 µM | 28%
29 | CC[C@H]1[C@@H](O)[C@@H]2[C@H](CC[C@]3(C)[C@@H]([C@H](C)CCCOC(=O)NS(=O)(=O)c4ccc(C(C)(C)C)cc4)CC[C@@H]23)[C@@]2(C)CC[C@@H](O)C[C@@H]12 [Example 111] | 0.1 to 1 µM | 208%
30 | CC[C@H]1[C@@H](O)[C@@H]2[C@H](CC[C@]3(C)[C@@H]([C@H](C)CCCOC(=O)NS(=O)(=O)c4cccc(C(C)(C)C)c4)CC[C@@H]23)[C@@]2(C)CC[C@@H](O)C[C@@H]12 [Example 112] | 0.1 to 1 µM | 123%
31 | CC[C@H]1[C@@H](O)[C@@H]2[C@H](CC[C@]3(C)[C@@H]([C@H](C)CCCOC(=O)NS(C)(=O)=O)CC[C@@H]23)[C@@]2(C)CC[C@@H](O)C[C@@H]12 [Example 113] | 1 to 10 µM | 130%
32 | CC[C@H]1[C@@H](O)[C@@H]2[C@H](CC[C@]3(C)[C@@H]([C@H](C)CCCOC(=O)NS(=O)(=O)C(C)C)CC[C@@H]23)[C@@]2(C)CC[C@@H](O)C[C@@H]12 [Example 114] | 0.1 to 1 µM | 345%
33 | CC[C@H]1[C@@H](O)[C@@H]2[C@H](CC[C@]3(C)[C@@H]([C@H](C)CCCOC(=O)NS(=O)(=O)c4ccc5ccccc5c4)CC[C@@H]23)[C@@]2(C)CC[C@@H](O)C[C@@H]12 [Example 115] | 0.1 to 1 µM | 376%
34 | CC[C@H]1[C@@H](O)[C@@H]2[C@H](CC[C@]3(C)[C@@H]([C@H](C)CCCOC(=O)NS(=O)(=O)c4ccc(-c5ccccc5)cc4)CC[C@@H]23)[C@@]2(C)CC[C@@H](O)C[C@@H]12 [Example 116] | 1 to 10 µM | 294%
35 | CC[C@H]1[C@@H](O)[C@@H]2[C@H](CC[C@]3(C)[C@@H]([C@H](C)CCCOC(=O)NS(=O)(=O)C(C)(C)C)CC[C@@H]23)[C@@]2(C)CC[C@@H](O)C[C@@H]12 [Example 117] | 0.1 to 1 µM | 365%
